Assay results reported in PubChem BioAssay (NCI).
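Dose response: 5 concentrations. Exposure: 48 h. Format: 96-well plates. Endpoint: linear interpolation; highest concentration if not reached. GI50 is the concentration that inhibits growth by half. TGI: concentration producing complete growth inhibition.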

Columns and labels:
Assay in all cases: NCI-60 cell line screen, 48 h
DU-145 prostate = tested on: DU-145 prostate
MCF7 breast = tested on: MCF7 breast
MDA-MB-435 = tested on: MDA-MB-435
HS 578T breast = tested on: HS 578T breast

SMILES | GI50 (DU-145 prostate) | TGI (DU-145 prostate) | GI50 (MCF7 breast) | TGI (MCF7 breast) | GI50 (MDA-MB-435) | TGI (MDA-MB-435) | GI50 (HS 578T breast) | TGI (HS 578T breast)
COc1ccc(/C=C/c2c(C(=O)/C=C/c3ccccc3)c(C)nc3ccccc23)cc1 | 1.68 µM | 3.16 µM | 1.37 µM | 7.74 µM | 2.18 µM | 5.69 µM |  | 
Cc1cc(C(=O)Nc2ccc3cc(CN4CCOCC4)ccc3n2)c(C)n1-c1ccccc1 | 3.6 µM | 35.7 µM | 1.87 µM | 10.8 µM | 1.38 µM | 5.22 µM | 4 µM | 44.6 µM
COCC[C@H]1CCC/C=C/[C@@H]2C[C@H](O)C[C@H]2[C@H](O)/C=C/C(=O)O1 | 0.445 µM | > 100 µM | 0.0437 µM | 0.171 µM | 0.0595 µM | > 100 µM | 0.0506 µM | > 100 µM
COc1cc(OC)c(C(=O)/C=C/c2cccc(C(F)(F)F)c2)c(OC)c1 | 1.73 µM | 6.08 µM | 1.12 µM | 7.38 µM | 1.61 µM | 6.57 µM | 3.93 µM | 28.6 µM
COc1ccc(C(=O)c2cc(C)c(OC)c(C)c2)cc1OC(=O)CCl | < 0.01 µM | > 100 µM | < 0.01 µM | > 100 µM | < 0.01 µM | < 0.01 µM | < 0.01 µM | 98.5 µM
CC(C)c1ccc(-c2cc(-c3cn[nH]c3-c3ccccn3)ccn2)cc1 | 16 µM | > 25 µM | > 18.9 µM | > 25 µM | 9.42 µM | > 25 µM | > 16.2 µM | > 25 µM
Cc1cc(C)c(NC(=O)c2sc3nc4c(cc3c2N)C(=O)CCC4)c(C)c1 | 3.36 µM | > 100 µM | 2.09 µM | > 100 µM |  |  | 4.51 µM | > 100 µM
CC1(C)C(=O)/C(=C\c2cccnc2)C[C@]2(C)[C@H]3CC[C@@H]4[C@H]5[C@H](C(=O)/C=C/c6cccnc6)CC[C@]5(C(=O)O)CC[C@@]4(C)[C@]3(C)CC[C@@H]12 | 2.1 µM | 5 µM | 2.56 µM | 10.7 µM | 3.2 µM | 12.9 µM | 7.61 µM | > 100 µM
C=CCCCCC/C=C\[C@@H](O)C#CC#C/C=C/CO | > 100 µM | > 100 µM | 32.7 µM | > 100 µM | 68.8 µM | > 100 µM | > 100 µM | > 100 µM
O=C(Nc1n[nH]c2cc(-c3ccccc3)ccc12)C1CC1 | 9.28 µM | > 25 µM | 3.95 µM | > 25 µM | 0.721 µM | > 25 µM | 18.9 µM | > 25 µM
CC(C)c1c(O)c(O)c2c(c1O)C(=O)C(O)=C1C(C)(C)CCC[C@@]12C |  | 18.1 µM |  | 12.7 µM |  | 10.1 µM |  | 43.5 µM
COc1ccc(C(=O)c2cc(C)c(OC)c(C)c2)c(OC)c1O | 0.0369 µM | > 100 µM | 0.235 µM | > 100 µM |  |  | 0.0274 µM | > 100 µM
COc1ccc2[nH]c3c4[nH]c5ccc(OC)cc5c4c4c(c3c2c1)C(=O)NC4=O | > 15.1 µM | > 25 µM | > 25 µM | > 25 µM | > 12.6 µM | > 25 µM | 1.35 µM | > 25 µM
COc1c(C(=O)/C=C/c2ccccc2)c(O)cc2occc12 | 3.81 µM | 13.2 µM | 3.52 µM | 17.2 µM | 3.21 µM | 13.2 µM | 2.76 µM | 8.36 µM
COC(=O)Nc1nc2ccc(C3(c4ccc(F)cc4)OCCO3)cc2[nH]1 | 0.363 µM | > 100 µM | 0.18 µM | > 100 µM | 0.0436 µM | 0.238 µM | 0.315 µM | > 69.9 µM
CCCC(CCC)NCC(O)c1cc(-c2ccc(C(F)(F)F)cc2)nc(C(F)(F)F)c1 (centres undefined) | 1.94 µM | 3.39 µM | 1.43 µM | 2.87 µM | 1.96 µM | 3.74 µM | 1.69 µM | 4.14 µM
NC(=O)c1cc(Cl)ccc1NC(=O)/C=C/c1ccccc1 | 3.3 µM | > 24.4 µM | 1.78 µM | > 100 µM | 0.618 µM | 3.53 µM | 3.17 µM | > 24.5 µM
CC/C=C\C[C@H](O)C/C=C1/C(=O)C=C[C@@H]1C/C=C\CCCC(=O)OC | 4.07 µM | 15.2 µM | 0.376 µM | 3.62 µM | 1.19 µM | 10 µM | 5.18 µM | 40.1 µM
CCNCCNc1cc(-c2ccc(C(F)(F)F)cc2)c(C#N)c2nc3ccccc3n12 | 1.44 µM | 2.78 µM | 0.642 µM | 2.18 µM | 1.28 µM | 2.56 µM | 1.96 µM | 4.39 µM
COc1ccc(C(=O)c2cc(OC)c(OC)c(OC)c2)cc1/C=C/C(=O)c1ccc(F)cc1 | 7.72 µM | 21 µM | 2.3 µM | 11.1 µM | 2.88 µM | 13.6 µM | 4.48 µM | > 100 µM
S=c1ssc(N2CCOCC2)c1Cl | 20.3 µM | 56.5 µM |  |  | 25 µM | 73.7 µM |  | 
